Reference: PubChem BioAssay AID280 (DTP/NCI, 2004)
Values joined by “and” are separate entries in the source; they are usually repeats but may differ in a detail not shown here. Equal values may be shown once. Inconclusive results and toxic doses are left out.

Test system: nude mice, LOX melanoma ip, survival T/C
Test: NCI In Vivo Anticancer Drug Screen. Data for tumor model Human Amelanotic Melanoma (LOX) (intraperitoneal) in NU/NU BALB/C (nude) mice
Conditions: endpoint: median survival time, schedule: Q04DX003 (ip), higher = longer survival
Description: The antitumor activity of compounds was measured in mice bearing transplantable tumors. Survival or tumor size were measured and the results are expressed as the measurement made in the treated group (T) divided by the measurement made in the vehicle treated control group (C). The tumor model used in this assay is Human Amelanotic Melanoma (LOX) (intraperitoneal) in NU/NU BALB/C (nude) mice

[1] = dose: 12.5 mg/kg/injection, vehicle: saline with Tween-80
[2] = dose: 25.0 mg/kg/injection, vehicle: saline with Tween-80
[3] = dose: 50.0 mg/kg/injection, vehicle: saline with Tween-80
[4] = dose: 100.0 mg/kg/injection, vehicle: saline with Tween-80
[5] = dose: 200.0 mg/kg/injection, vehicle: saline with Tween-80
[6] = dose: 75.0 mg/kg/injection, vehicle: saline
[7] = dose: 300.0 mg/kg/injection, vehicle: saline
[8] = dose: 600.0 mg/kg/injection, vehicle: saline

**Q.** `N#Cc1c(-c2ccc(F)cc2)c(-c2ccc(F)cc2)nn(CCO)c1=O` was tested. Which T/C (dose: 12.5 mg/kg/injection, vehicle: distilled water + Tween-80) did it give?
**A.** 98 % of control

**Q.** What about the T/C (dose: 25.0 mg/kg/injection, vehicle: distilled water + Tween-80) of the same molecule?
**A.** 111 % of control

**Q.** And the T/C (dose: 50.0 mg/kg/injection, vehicle: distilled water + Tween-80)?
**A.** 115 % of control

**Q.** What about the T/C (dose: 72.0 mg/kg/injection, vehicle: distilled water + Tween-80) of the same molecule?
**A.** 110 % of control

**Q.** And the T/C (dose: 100.0 mg/kg/injection, vehicle: distilled water + Tween-80)?
**A.** 122 % of control

**Q.** And the T/C (dose: 120.0 mg/kg/injection, vehicle: distilled water + Tween-80)?
**A.** 124 % of control

**Q.** And the T/C (dose: 200.0 mg/kg/injection, vehicle: distilled water + Tween-80)?
**A.** 120 % of control

**Q.** What about the T/C (dose: 333.33 mg/kg/injection, vehicle: distilled water + Tween-80) of the same molecule?
**A.** 166 % of control

**Q.** What about the T/C (dose: 555.55 mg/kg/injection, vehicle: distilled water + Tween-80) of the same molecule?
**A.** 212 % of control

**Q.** With `Cc1ccc(/C=C/C(=O)/C=C/c2ccc(C)o2)o1` as the molecule, how does the T/C (dose: 50.0 mg/kg/injection, vehicle: DMSO) read?
**A.** 113 % of control

**Q.** And the T/C (dose: 100.0 mg/kg/injection, vehicle: DMSO)?
**A.** 102 % of control

**Q.** And the T/C (dose: 200.0 mg/kg/injection, vehicle: DMSO)?
**A.** 98 % of control

**Q.** And the T/C (dose: 400.0 mg/kg/injection, vehicle: DMSO)?
**A.** 100 % of control

**Q.** And the T/C (dose: 800.0 mg/kg/injection, vehicle: DMSO)?
**A.** 106 % of control

**Q.** How did the T/C [1] turn out when `Nc1nc2c(C(=O)N3CCCC3)nnn2c2ccccc12` was run?
**A.** 96 % of control

**Q.** And the T/C [2]?
**A.** 102 % of control

**Q.** What about the T/C [3] of the same molecule?
**A.** 92 % of control

**Q.** `CC(=O)N(C)c1ccc(Nc2cc(C)[nH]c3ccc4ncnc4c23)cc1` was tested. Which T/C [1] did it give?
**A.** 102 % of control

**Q.** And the T/C (dose: 36.0 mg/kg/injection, vehicle: saline)?
**A.** 101 % of control

**Q.** What about the T/C [3] of the same molecule?
**A.** 99 % of control

**Q.** And the T/C (dose: 60.0 mg/kg/injection, vehicle: saline)?
**A.** 110 % of control

**Q.** And the T/C [4]?
**A.** 91 % of control

**Q.** And the T/C (dose: 100.0 mg/kg/injection, vehicle: saline)?
**A.** 100 % of control

**Q.** And the T/C (dose: 167.0 mg/kg/injection, vehicle: saline)?
**A.** 94 % of control

**Q.** Which results are given for `CC(/C=C/C=C/C=C/C=C/C=C/C(O)=C1/C(=O)C(CCC(=O)O)N(C)C1=O)=C\C(C)C(OC1CC(O)C(O)C(C)O1)C(C)C` (centres undefined)?
**A.** T/C (dose: 8.3 mg/kg/injection, vehicle: water): 114 % of control; T/C (dose: 13.8 mg/kg/injection, vehicle: water): 114 % of control; T/C (dose: 16.0 mg/kg/injection, vehicle: water): 150 % of control; T/C (dose: 32.0 mg/kg/injection, vehicle: water): 168 % of control; T/C (dose: 107.0 mg/kg/injection, vehicle: water): 116 % of control

**Q.** How did the T/C [1] turn out when `Nc1nc(Br)nc2c1ncn2C1CC(O)C(CO)O1` (centres undefined) was run?
**A.** 99 % of control

**Q.** What about the T/C [2] of the same molecule?
**A.** 106 % of control

**Q.** What about the T/C [3] of the same molecule?
**A.** 104 % of control

**Q.** And the T/C [4]?
**A.** 104 % of control

**Q.** What about the T/C [5] of the same molecule?
**A.** 93 % of control

**Q.** Which T/C (dose: 600.0 mg/kg/injection, vehicle: Klucel (hydroxypropylcellulose) (HPC)) does the source give for `COc1cc(C)c(C2NC(=O)c3ccccc3N2)cc1C` (centres undefined) here?
**A.** 166 % of control

**Q.** What about the T/C (dose: 1200.0 mg/kg/injection, vehicle: Klucel (hydroxypropylcellulose) (HPC)) of the same molecule?
**A.** 192 % of control

**Q.** What does the source list for `O=NN(CCCl)C(=O)Oc1ccc(OC(=O)N(CCCl)N=O)cc1`?
**A.** T/C (dose: 20.0 mg/kg/injection, vehicle: Klucel (hydroxypropylcellulose) (HPC)): 118 % of control; T/C (dose: 40.0 mg/kg/injection, vehicle: Klucel (hydroxypropylcellulose) (HPC)): 94 % of control

**Q.** `C/C(=N\NC(=S)N1CCN(c2ccccn2)CC1)c1ccccn1` was tested. Which T/C (dose: 10.0 mg/kg/injection, vehicle: water) did it give?
**A.** 89 % of control

**Q.** What about the T/C (dose: 20.0 mg/kg/injection, vehicle: water) of the same molecule?
**A.** 95 % of control

**Q.** And the T/C (dose: 40.0 mg/kg/injection, vehicle: water)?
**A.** 94 % of control

**Q.** And the T/C (dose: 80.0 mg/kg/injection, vehicle: water)?
**A.** 97 % of control

**Q.** For `Cc1ccccc1N=C(c1ccccc1)C1C(=O)c2ccccc2C1=O`, which T/C (dose: 75.0 mg/kg/injection, vehicle: DMSO) is on record?
**A.** 101 % of control

**Q.** What about the T/C (dose: 75.0 mg/kg/injection, vehicle: other) of the same molecule?
**A.** 105 % of control

**Q.** What about the T/C (dose: 150.0 mg/kg/injection, vehicle: DMSO) of the same molecule?
**A.** 109 % of control

**Q.** What about the T/C (dose: 150.0 mg/kg/injection, vehicle: other) of the same molecule?
**A.** 93 % of control

**Q.** What about the T/C (dose: 300.0 mg/kg/injection, vehicle: DMSO) of the same molecule?
**A.** 101 % of control

**Q.** What about the T/C (dose: 300.0 mg/kg/injection, vehicle: other) of the same molecule?
**A.** 103 % of control

**Q.** What about the T/C (dose: 600.0 mg/kg/injection, vehicle: DMSO) of the same molecule?
**A.** 103 % of control

**Q.** What about the T/C (dose: 600.0 mg/kg/injection, vehicle: other) of the same molecule?
**A.** 103 % of control

**Q.** What about the T/C (dose: 1200.0 mg/kg/injection, vehicle: DMSO) of the same molecule?
**A.** 99 % of control

**Q.** What about the T/C (dose: 1200.0 mg/kg/injection, vehicle: other) of the same molecule?
**A.** 102 % of control

**Q.** Which results are given for `CC#CCOCC(O)CCl` (centres undefined)?
**A.** T/C (dose: 37.5 mg/kg/injection, vehicle: saline): 97 % of control; T/C [6]: 99 % of control; T/C (dose: 150.0 mg/kg/injection, vehicle: saline): 102 % of control; T/C [7]: 106 % of control; T/C [8]: 110 % of control

**Q.** With `O=C1C=C(N2CC2)C(=O)C(N2CC2)=C1N1CC1` as the molecule, how does the T/C (dose: 25.0 micrograms/kg/injection, vehicle: saline) read?
**A.** 177 % of control

**Q.** And the T/C (dose: 43.0 micrograms/kg/injection, vehicle: saline)?
**A.** 116 % of control

**Q.** What about the T/C (dose: 100.0 micrograms/kg/injection, vehicle: saline) of the same molecule?
**A.** 220 % of control

**Q.** And the T/C (dose: 120.0 micrograms/kg/injection, vehicle: saline)?
**A.** 158 % of control

**Q.** What about the T/C (dose: 200.0 micrograms/kg/injection, vehicle: saline) of the same molecule?
**A.** 277 % of control

**Q.** And the T/C (dose: 333.0 micrograms/kg/injection, vehicle: saline)?
**A.** 187 % of control

**Q.** With `[Na+]` as the molecule, how does the T/C (dose: 75.0 mg/kg/injection, vehicle: water) read?
**A.** 104 % of control

**Q.** And the T/C (dose: 150.0 mg/kg/injection, vehicle: water)?
**A.** 95 % of control

**Q.** What about the T/C (dose: 300.0 mg/kg/injection, vehicle: water) of the same molecule?
**A.** 108 % of control

**Q.** And the T/C (dose: 1200.0 mg/kg/injection, vehicle: water)?
**A.** 99 % of control

**Q.** What does the source list for `O=C(O)C1CC(O)CN1` (centres undefined)?
**A.** T/C [6]: 108 % of control; T/C [7]: 112 % of control; T/C [8]: 107 % of control; T/C (dose: 1200.0 mg/kg/injection, vehicle: saline): 114 % of control

**Q.** Which T/C (dose: 15.0 mg/kg/injection, vehicle: saline with Tween-80) does the source give for `CCCCN1C(=O)N(c2ccc(OCC)cc2)C2N(CCCC)C1C(C)(C)C2(C)C` (centres undefined) here?
**A.** 101 % of control

**Q.** And the T/C (dose: 30.0 mg/kg/injection, vehicle: saline with Tween-80)?
**A.** 107 % of control

**Q.** And the T/C (dose: 60.0 mg/kg/injection, vehicle: saline with Tween-80)?
**A.** 101 % of control and 102 % of control

**Q.** And the T/C (dose: 120.0 mg/kg/injection, vehicle: saline with Tween-80)?
**A.** 101 % of control

**Q.** What about the T/C (dose: 240.0 mg/kg/injection, vehicle: saline with Tween-80) of the same molecule?
**A.** 98 % of control

**Q.** What does the source list for `NC(=O)C1C=CN(Cc2ccccc2)C=C1`?
**A.** T/C [3]: 112 % of control; T/C [4]: 117 % of control; T/C [5]: 123 % of control
